{
  "source": "patent US20240374692A1",
  "about": "“A NOVEL ACYLATED INSULIN ANALOG” (SUNSHINE LAKE PHARMA CO., LTD., priority 2021, published 2024)",
  "key": {"[1]": {"details": "rat, in vivo, iv, 10 nmol/kg"}, "[2]": {"details": "mouse, in vivo, sc, 10 nmol/kg"}, "normal C57BL/6 mice": {"tested_on": "normal C57BL/6 mice", "assay": "Hypoglycemic effect, single subcutaneous administration to normal C57BL/6 mice", "format": "in vivo", "parameters": "blood glucose: unit not given here", "details": "for blood glucose: Mean ± SEM, n = 6", "experimental": "SPF grade C57BL/6 mice were reared in a suitable rearing box in a barrier environment, with a rearing temperature of 20-26° C., a humidity of 40-70%, a time between day and night of 12 h/12 h, and the mice had free access to standard food and autoclaved sterilization water. After a 3-day quarantine period and a 2-day acclimation period, random blood glucose was measured and mice were weighed. Mice were divided into 6 groups according to random blood glucose and body weight.\nSingle subcutaneous administration (S.C.) was used to administer the corresponding vehicle or drug. The control group was administered the vehicle PBS without fasting during the whole process, and the animals were allowed to eat and drink freely. Random blood glucose values of C57 mice were measured before administration and at 0.25, 0.5, 1, 2, 4, 6, 8, 10, 24, 48, 54, 72 and 96 hours after administration.\n(§1) All raw data were entered into Excel files and expressed as Mean±SEM. Statistical analysis of data was performed using Graphpad Prism 7.0 software, one-way or two-way ANOVA comparison method, and P<0.05 was used as the criterion for significant differences."}, "[3]": {"tested_on": "STZ-induced type I diabetes mellitus (T1DM) C57BL/6 mice", "assay": "Hypoglycemic effect, repeated administration (three times) to STZ-induced T1DM C57BL/6 mice (Example 6)", "format": "in vivo", "parameters": "key to random blood glucose: blood glucose in mmol/L", "details": "for random blood glucose: 500 nmol/Kg S.C. three times, Mean ± SEM, n = 7", "experimental": "SPF grade C57BL/6 mice were reared in a suitable rearing box in a barrier environment, with a rearing temperature of 20-26° C., a humidity of 40-70%, a time between day and night of 12 h/12 h, and the mice had free access to standard food and autoclaved sterilization water. After the 3-day quarantine period and the 2-day acclimation period, the mice were fasted for 12 h, and the mice were injected intraperitoneally with streptozotocin solution (STZ, 13 mg/mL, in citrate buffer) at 130 mg/kg. 3 Days and 7 days after administration of streptozotocin, random blood glucose and fasting blood glucose were detected, and the random blood glucose value above 25 mmol/L and fasting blood glucose value above 11.1 mmol/L were selected as T1DM model mice for follow-up experiments. On the day before administration, random blood glucose was monitored and mice were weighed. Mice were divided into 6 groups according to random blood glucose and body weight.\nSubcutaneous administration (S.C.) was used to administer the corresponding vehicle or drug, once every 4-5 days, for a total of 3 administrations. During the experiment, the animals were allowed to eat and drink water freely. The random blood glucose before the first administration, and 0.25, 0.5, 1, 2, 4, 6, 8, 10, 24, 48, 72, and 96 h after administration were assessed, as well as the random blood glucose before the second and third administration, and 0.5, 1, 2, 6, 24, 48, 72, 96 and 120 h after administration.\nas §1"}, "insulin receptor B": {"target": "T1, insulin receptor B (Homo sapiens, UniProt P06213)", "T1 construct": "expressed in transfected cells", "T1 sequence (P06213 28-758 limits assumed)": "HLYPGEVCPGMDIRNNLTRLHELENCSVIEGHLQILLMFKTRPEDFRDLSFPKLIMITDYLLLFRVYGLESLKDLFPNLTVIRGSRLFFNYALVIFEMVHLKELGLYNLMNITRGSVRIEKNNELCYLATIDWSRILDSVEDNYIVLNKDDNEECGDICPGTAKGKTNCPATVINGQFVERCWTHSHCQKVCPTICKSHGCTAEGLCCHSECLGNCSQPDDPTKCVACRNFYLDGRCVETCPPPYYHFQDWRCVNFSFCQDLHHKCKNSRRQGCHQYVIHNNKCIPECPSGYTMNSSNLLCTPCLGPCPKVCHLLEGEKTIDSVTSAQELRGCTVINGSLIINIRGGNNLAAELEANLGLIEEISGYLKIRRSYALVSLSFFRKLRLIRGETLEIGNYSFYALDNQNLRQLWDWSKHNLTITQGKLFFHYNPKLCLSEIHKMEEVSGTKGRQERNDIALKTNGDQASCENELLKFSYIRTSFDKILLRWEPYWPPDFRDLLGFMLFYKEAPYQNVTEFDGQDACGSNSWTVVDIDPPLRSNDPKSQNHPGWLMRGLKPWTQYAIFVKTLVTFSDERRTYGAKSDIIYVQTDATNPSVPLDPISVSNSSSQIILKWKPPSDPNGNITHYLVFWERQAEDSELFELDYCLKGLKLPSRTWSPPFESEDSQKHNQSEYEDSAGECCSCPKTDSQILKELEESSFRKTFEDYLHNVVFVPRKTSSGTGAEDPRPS", "T1 sequence (P06213 763-1382 partner limits assumed)": "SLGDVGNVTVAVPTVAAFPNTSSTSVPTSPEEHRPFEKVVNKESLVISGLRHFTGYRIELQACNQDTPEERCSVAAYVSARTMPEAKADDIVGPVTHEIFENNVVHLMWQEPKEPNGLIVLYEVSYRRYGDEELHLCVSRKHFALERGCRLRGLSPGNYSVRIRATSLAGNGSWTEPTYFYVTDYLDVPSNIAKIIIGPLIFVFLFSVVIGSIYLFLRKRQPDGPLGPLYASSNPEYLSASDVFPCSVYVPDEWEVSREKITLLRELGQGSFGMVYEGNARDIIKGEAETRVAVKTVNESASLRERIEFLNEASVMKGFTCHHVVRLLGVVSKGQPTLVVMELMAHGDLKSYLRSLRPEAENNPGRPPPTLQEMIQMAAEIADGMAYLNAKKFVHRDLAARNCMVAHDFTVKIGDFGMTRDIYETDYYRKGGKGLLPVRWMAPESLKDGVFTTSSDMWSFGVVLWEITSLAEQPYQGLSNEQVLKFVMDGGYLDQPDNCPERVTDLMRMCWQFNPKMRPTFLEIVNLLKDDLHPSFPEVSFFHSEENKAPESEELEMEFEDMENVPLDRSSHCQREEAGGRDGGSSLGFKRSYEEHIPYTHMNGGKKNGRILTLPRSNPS", "assay": "Insulin receptor B autophosphorylation in transfected cells (Cisbio Phospho-IR beta Tyr1150/1151 kit)", "format": "cell-based", "details": "for Relative HI activity: relative to human insulin", "experimental": "The phosphorylation level of insulin receptor B was detected by Cisbio's Phospho-IR beta (Tyr1150/1151) kit method to evaluate the biological activity of insulin. The cells were seeded into a 96-well plate overnight, and after the serum in the medium was removed, 40 μl of serum-free medium was added to culture for about 4 h. Then a dilution series of insulin derivatives were prepared with blank solution (0.6% casein, 0.06 mg/mL EDTA, 1×DPBS) and incubated with cells in the 96-well plate for 5 min in a CO2 incubator (37° C., 5% CO2). The liquid in the 96-well plate was poured off, 100 µL of a mixture of lysis buffer (2% Triton X-100, 150 mM NaCl, 50 mM HEPES, pH=7) and inhibitor (Blocking Reagent in the kit) was added to lyse the cells, then the plate was shaken at 350 rpm for 30 min. Relative activity (in percent (%)) was assessed by measuring insulin receptor phosphorylation levels in the supernatant after cell lysis and fitting a curve to the data using nonlinear regression in Graphpad Prism 5 software. Related assays were also used, in which the blank solution also contained 1.5% HSA to simulate physiological conditions. Changes in the phosphorylation levels of the insulin-activated insulin receptors of the invention were detected as an indirect reflection of the albumin binding activity."}, "[4]": {"details": "single S.C., Degludec 200 nmol/Kg, others 1400 nmol/Kg"}},
  "note": "Read-outs that look alike come from different tables or passages of the source.",
  "data": [
    {"substance": "A14E, B16E, B25H, B29K(N(ε)-COOH(CH2)18CO-L-Lys-CO(CH2)2CO—(OEG)2), desB30 human insulin analog [Insulin-a3]", "values": [
      {"measurement": "AUClast", "setting": "[1]", "value": 9170, "unit": "ng·h/mL"},
      {"measurement": "T1/2", "setting": "[1]", "value": "11.2 ± 1.9", "unit": "h"},
      {"measurement": "AUClast", "setting": "[2]", "value": 12300, "unit": "ng·h/mL"},
      {"measurement": "T1/2", "setting": "[2]", "value": 18.6, "unit": "h"},
      {"measurement": "blood glucose", "setting": "normal C57BL/6 mice; 0 h (before administration), single S.C., Degludec 200 nmol/Kg, others 1400 nmol/Kg", "value": "8.0 ± 1.0"},
      {"measurement": "blood glucose", "setting": "normal C57BL/6 mice; 0.25 h after single S.C., Degludec 200 nmol/Kg, others 1400 nmol/Kg", "value": "8.6 ± 1.0"},
      {"measurement": "blood glucose", "setting": "normal C57BL/6 mice; 0.5 h after single S.C., Degludec 200 nmol/Kg, others 1400 nmol/Kg", "value": "6.2 ± 0.4"},
      {"measurement": "blood glucose compared with the control group", "setting": "normal C57BL/6 mice; 1 h after single S.C. administration", "value": "decreased significantly"},
      {"measurement": "blood glucose", "setting": "normal C57BL/6 mice; 1 h after single S.C., Degludec 200 nmol/Kg, others 1400 nmol/Kg", "value": "4.9 ± 0.8"},
      {"measurement": "blood glucose", "setting": "normal C57BL/6 mice; 2 h after single S.C., Degludec 200 nmol/Kg, others 1400 nmol/Kg", "value": "4.5 ± 1.0"},
      {"measurement": "blood glucose", "setting": "normal C57BL/6 mice; 4 h after single S.C., Degludec 200 nmol/Kg, others 1400 nmol/Kg", "value": "3.9 ± 0.7"},
      {"measurement": "blood glucose", "setting": "normal C57BL/6 mice; 6 h after single S.C., Degludec 200 nmol/Kg, others 1400 nmol/Kg", "value": "3.7 ± 0.5"},
      {"measurement": "blood glucose", "setting": "normal C57BL/6 mice; 8 h after single S.C., Degludec 200 nmol/Kg, others 1400 nmol/Kg", "value": "3.8 ± 0.5"},
      {"measurement": "blood glucose", "setting": "normal C57BL/6 mice; 10 h after single S.C., Degludec 200 nmol/Kg, others 1400 nmol/Kg", "value": "3.5 ± 0.7"},
      {"measurement": "blood glucose", "setting": "normal C57BL/6 mice; 24 h after single S.C., Degludec 200 nmol/Kg, others 1400 nmol/Kg", "value": "2.9 ± 1.0"},
      {"measurement": "blood glucose", "setting": "normal C57BL/6 mice; 48 h after single S.C., Degludec 200 nmol/Kg, others 1400 nmol/Kg", "value": "4.2 ± 2.0"},
      {"measurement": "blood glucose", "setting": "normal C57BL/6 mice; 72 h after single S.C., Degludec 200 nmol/Kg, others 1400 nmol/Kg", "value": "5.4 ± 2.6"},
      {"measurement": "blood glucose", "setting": "normal C57BL/6 mice; 96 h after single S.C., Degludec 200 nmol/Kg, others 1400 nmol/Kg", "value": "8.8 ± 1.1"},
      {"measurement": "effect on blood glucose control compared with Icodec", "setting": "normal C57BL/6 mice; single S.C. 1400 nmol/Kg", "value": "slightly worse"},
      {"measurement": "effective blood glucose control time", "setting": "normal C57BL/6 mice; [4]", "value": 96, "unit": "h"},
      {"measurement": "time after administration at which blood glucose reached the lowest level", "setting": "normal C57BL/6 mice; [4]", "value": 24, "unit": "h"},
      {"measurement": "effective glucose control time", "setting": "[3]; 500 nmol/Kg S.C.", "value": "96 to 120", "unit": "h"},
      {"measurement": "random blood glucose", "setting": "[3]; Day 0 (1st)", "value": "31.8 ± 3.2"},
      {"measurement": "random blood glucose", "setting": "[3]; Day 1", "value": "20.7 ± 5.2"},
      {"measurement": "random blood glucose", "setting": "[3]; Day 4 (2nd)", "value": "29.7 ± 3.7"},
      {"measurement": "random blood glucose", "setting": "[3]; Day 5", "value": "20.1 ± 5.4"},
      {"measurement": "random blood glucose", "setting": "[3]; Day 9 (3rd)", "value": "27.7 ± 6.2"},
      {"measurement": "random blood glucose", "setting": "[3]; Day 10", "value": "16.0 ± 9.4"},
      {"measurement": "random blood glucose", "setting": "[3]; Day 14", "value": "27.4 ± 6.3"},
      {"measurement": "time after administration at which blood glucose returned to normal level", "setting": "[3]; 500 nmol/Kg S.C., after the first and second administrations", "value": 96, "unit": "h"},
      {"measurement": "time after administration at which blood glucose returned to normal level", "setting": "[3]; 500 nmol/Kg S.C., after the third administration", "value": 120, "unit": "h"},
      {"measurement": "time after each administration at which blood glucose reached the lowest level", "setting": "[3]; Icodec 250, 500 and 1000 nmol/kg, Insulin-a3 and Insulin-a10 500 nmol/Kg", "value": 24, "unit": "h"},
      {"measurement": "glucose control effect compared with the Icodec-500 nmol/kg group", "setting": "[3]; test drug 500 nmol/Kg S.C.", "value": "better"},
      {"measurement": "glucose control effect compared with the Icodec-1000 nmol/kg group", "setting": "[3]; test drug 500 nmol/Kg S.C.", "value": "slightly worse"},
      {"measurement": "EC50", "setting": "insulin receptor B; 0% HSA", "value": 213, "unit": "nM"},
      {"measurement": "Relative HI activity", "setting": "insulin receptor B; 0% HSA", "value": 0.58, "unit": "%"},
      {"measurement": "EC50", "setting": "insulin receptor B; 1.5% HSA", "value": 4490, "unit": "nM"},
      {"measurement": "Relative 0% HSA activity", "setting": "insulin receptor B; 1.5% HSA relative to 0% HSA", "value": 5.86, "unit": "%"},
      {"measurement": "Relative HI activity", "setting": "insulin receptor B; 1.5% HSA", "value": 0.06, "unit": "%"}
    ]}
  ]
}
